Experiments:
[1] = molecular target: Cyclin-dependent kinase 5 (Homo sapiens, UniProt Q00535); experiment: Selectivity interaction (Kinase screening (Nanosyn)) EUB0000604a CDK5
[2] = molecular target: Tyrosine-protein kinase Lyn (Homo sapiens, UniProt P07948); experiment: Selectivity interaction (ActivX KiNativ screen (kinase selectivity in THP-1 cell lysates)) EUB0000639a LYN; type: subcellular; settings: lysate, at 0.2 µM
[3] = molecular target: Calcium/calmodulin-dependent protein kinase type II subunit delta (Homo sapiens) (UniProt Q13557); experiment: Selectivity interaction (Kinase panel (Z-LYTE Assay)) EUB0001632a CAMK2D; settings: at 10 µM
Calcium/calmodulin-dependent protein kinase type II subunit delta (Homo sapiens), sequence (Q13557 whole entry): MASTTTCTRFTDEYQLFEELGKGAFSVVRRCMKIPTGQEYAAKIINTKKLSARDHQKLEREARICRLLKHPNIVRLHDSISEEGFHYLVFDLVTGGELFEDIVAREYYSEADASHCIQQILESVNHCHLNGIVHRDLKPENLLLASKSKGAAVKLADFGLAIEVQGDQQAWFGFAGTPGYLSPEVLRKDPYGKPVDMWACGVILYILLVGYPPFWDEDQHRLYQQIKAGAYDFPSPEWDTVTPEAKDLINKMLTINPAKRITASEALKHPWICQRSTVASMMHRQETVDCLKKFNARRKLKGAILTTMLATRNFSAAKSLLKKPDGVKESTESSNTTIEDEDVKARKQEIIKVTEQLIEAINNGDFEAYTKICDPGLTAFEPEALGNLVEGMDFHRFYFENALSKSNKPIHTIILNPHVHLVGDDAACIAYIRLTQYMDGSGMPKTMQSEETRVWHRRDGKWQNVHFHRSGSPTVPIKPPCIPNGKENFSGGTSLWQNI

[4] = molecular target: Cyclin-dependent kinase 18 (Homo sapiens) (UniProt Q07002); experiment: Selectivity interaction (KinomeScan (DiscoverX)) EUB0001079a CDK18; settings: at 1 µM
Cyclin-dependent kinase 18 (Homo sapiens), sequence (Q07002 whole entry): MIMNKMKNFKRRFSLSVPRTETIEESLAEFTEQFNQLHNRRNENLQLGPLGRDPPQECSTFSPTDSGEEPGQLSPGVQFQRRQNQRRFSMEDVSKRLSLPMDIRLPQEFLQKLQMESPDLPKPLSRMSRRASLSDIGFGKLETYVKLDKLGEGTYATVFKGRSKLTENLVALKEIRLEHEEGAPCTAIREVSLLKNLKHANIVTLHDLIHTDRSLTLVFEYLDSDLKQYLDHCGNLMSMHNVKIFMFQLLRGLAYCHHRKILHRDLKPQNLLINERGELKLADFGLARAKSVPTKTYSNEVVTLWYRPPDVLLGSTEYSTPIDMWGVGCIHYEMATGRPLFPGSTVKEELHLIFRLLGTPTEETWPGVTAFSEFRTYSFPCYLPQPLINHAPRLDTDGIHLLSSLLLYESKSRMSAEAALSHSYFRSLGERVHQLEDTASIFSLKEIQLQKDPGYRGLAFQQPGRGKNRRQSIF

[5] = molecular target: Serine/threonine-protein kinase 32A (Homo sapiens) (UniProt Q8WU08); experiment: Selectivity interaction (KinomeScan (DiscoverX)) EUB0000045b STK32A
Serine/threonine-protein kinase 32A (Homo sapiens), sequence (Q8WU08 whole entry): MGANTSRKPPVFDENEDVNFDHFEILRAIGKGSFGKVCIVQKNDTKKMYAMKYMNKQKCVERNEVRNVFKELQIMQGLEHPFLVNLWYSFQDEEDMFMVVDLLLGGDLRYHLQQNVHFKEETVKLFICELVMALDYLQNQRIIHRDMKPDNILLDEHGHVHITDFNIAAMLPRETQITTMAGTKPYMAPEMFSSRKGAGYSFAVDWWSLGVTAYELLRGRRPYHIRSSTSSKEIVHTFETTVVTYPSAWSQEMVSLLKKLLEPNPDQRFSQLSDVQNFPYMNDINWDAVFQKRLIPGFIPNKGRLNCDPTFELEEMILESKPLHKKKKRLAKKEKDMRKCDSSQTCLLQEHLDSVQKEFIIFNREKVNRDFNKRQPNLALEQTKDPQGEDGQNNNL

[6] = molecular target: T1, Ephrin type-A receptor 1 (Homo sapiens) (UniProt P21709); experiment: Selectivity interaction (KinomeScan (DiscoverX)) EUB0000655a EPHA1; settings: at 10 µM
T1 sequence (whole entry): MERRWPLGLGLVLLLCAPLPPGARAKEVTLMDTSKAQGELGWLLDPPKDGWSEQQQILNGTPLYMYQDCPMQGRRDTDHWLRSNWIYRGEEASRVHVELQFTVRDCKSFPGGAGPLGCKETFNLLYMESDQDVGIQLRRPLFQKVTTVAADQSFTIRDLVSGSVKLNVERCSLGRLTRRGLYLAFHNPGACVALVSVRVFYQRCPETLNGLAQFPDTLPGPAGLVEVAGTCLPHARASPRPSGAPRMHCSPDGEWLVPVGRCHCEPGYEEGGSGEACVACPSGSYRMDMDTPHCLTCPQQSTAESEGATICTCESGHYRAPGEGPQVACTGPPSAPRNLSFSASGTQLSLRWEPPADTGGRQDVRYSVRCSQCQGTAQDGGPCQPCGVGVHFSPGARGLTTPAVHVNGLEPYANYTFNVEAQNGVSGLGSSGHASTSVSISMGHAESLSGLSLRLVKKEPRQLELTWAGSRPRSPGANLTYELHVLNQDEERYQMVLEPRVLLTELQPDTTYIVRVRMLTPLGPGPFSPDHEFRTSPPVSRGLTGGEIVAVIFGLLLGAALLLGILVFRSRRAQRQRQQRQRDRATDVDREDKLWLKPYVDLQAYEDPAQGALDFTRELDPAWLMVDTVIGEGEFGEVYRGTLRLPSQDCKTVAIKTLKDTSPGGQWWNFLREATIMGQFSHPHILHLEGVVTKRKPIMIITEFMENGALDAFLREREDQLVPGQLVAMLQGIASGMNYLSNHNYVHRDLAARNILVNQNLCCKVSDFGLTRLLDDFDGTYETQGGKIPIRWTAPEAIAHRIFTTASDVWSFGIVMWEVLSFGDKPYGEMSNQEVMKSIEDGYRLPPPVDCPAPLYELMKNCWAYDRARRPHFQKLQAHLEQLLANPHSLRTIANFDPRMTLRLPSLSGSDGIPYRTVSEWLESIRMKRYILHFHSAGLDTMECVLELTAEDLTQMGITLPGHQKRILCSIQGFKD

[7] = molecular target: Angiopoietin-1 receptor (Homo sapiens) (UniProt Q02763); experiment: Selectivity interaction (KinomeScan (DiscoverX)) EUB0000618a TEK; settings: at 10 µM
Angiopoietin-1 receptor (Homo sapiens), sequence (Q02763 whole entry): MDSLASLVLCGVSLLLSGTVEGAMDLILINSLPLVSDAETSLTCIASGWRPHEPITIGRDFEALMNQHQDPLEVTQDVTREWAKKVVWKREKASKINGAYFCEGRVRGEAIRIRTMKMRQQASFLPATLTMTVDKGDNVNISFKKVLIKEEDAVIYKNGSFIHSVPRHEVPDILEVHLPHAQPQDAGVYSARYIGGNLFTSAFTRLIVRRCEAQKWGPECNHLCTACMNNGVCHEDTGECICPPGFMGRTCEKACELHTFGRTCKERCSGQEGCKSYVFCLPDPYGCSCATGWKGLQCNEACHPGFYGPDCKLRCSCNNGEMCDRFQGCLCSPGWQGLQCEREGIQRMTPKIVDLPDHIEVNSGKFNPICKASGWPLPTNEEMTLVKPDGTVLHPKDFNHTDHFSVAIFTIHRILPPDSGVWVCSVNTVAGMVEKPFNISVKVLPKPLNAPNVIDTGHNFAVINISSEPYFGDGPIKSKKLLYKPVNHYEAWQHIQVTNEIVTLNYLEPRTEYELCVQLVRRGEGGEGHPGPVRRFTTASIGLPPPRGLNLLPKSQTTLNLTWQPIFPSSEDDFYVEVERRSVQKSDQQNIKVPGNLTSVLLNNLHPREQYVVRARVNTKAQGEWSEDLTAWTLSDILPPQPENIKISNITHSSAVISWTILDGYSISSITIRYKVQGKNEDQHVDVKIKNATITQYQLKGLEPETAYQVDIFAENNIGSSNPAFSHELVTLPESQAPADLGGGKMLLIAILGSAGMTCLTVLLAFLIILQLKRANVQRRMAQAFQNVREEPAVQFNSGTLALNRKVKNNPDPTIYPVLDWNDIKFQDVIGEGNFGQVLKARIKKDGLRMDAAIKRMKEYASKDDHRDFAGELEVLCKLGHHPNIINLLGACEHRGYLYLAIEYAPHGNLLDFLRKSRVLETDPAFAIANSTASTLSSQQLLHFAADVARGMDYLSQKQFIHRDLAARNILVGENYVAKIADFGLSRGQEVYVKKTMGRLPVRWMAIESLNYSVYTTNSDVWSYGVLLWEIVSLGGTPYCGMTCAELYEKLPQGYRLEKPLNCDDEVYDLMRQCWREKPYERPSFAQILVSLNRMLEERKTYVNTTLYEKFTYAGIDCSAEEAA

[8] = molecular target: Serine/threonine-protein kinase OSR1 (Homo sapiens) (UniProt O95747); experiment: Selectivity interaction (Kinase panel (KiNativ target engagement assay in Jurkat cells)) EUB0001635a OXSR1; type: cell-based; settings: Selectivity number of off-targets 0.0, Selectivity number of targets 233.0, Source Knowledge https://www.sciencedirect.com/science/article/pii/S2451945619300674?via%3Dihub, at 1 µM
Serine/threonine-protein kinase OSR1 (Homo sapiens), sequence (O95747 2-527 limits assumed): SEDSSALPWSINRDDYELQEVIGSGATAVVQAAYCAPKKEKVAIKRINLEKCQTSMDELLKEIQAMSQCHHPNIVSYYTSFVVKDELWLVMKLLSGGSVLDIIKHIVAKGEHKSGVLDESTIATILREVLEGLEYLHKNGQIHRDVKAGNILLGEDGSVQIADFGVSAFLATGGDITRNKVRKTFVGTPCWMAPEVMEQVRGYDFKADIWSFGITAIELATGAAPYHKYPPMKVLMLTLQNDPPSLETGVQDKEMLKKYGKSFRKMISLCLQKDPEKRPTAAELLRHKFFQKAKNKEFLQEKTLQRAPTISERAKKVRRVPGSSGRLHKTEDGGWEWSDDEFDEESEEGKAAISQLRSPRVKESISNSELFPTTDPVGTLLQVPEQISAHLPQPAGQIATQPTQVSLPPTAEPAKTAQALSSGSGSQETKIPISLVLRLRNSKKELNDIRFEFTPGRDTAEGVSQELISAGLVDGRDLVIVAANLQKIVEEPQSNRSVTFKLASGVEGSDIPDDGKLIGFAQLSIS

[9] = molecular target: T2, Phosphatidylinositol 4,5-bisphosphate 3-kinase catalytic subunit delta isoform (Homo sapiens) (UniProt O00329); experiment: Selectivity interaction (Kinase panel (KiNativ target engagement assay in Jurkat cells)) EUB0001635a PIK3CD; type: cell-based; settings: Selectivity number of off-targets 0.0, Selectivity number of targets 233.0, Source Knowledge https://www.sciencedirect.com/science/article/pii/S2451945619300674?via%3Dihub, at 1 µM
T2 sequence (whole entry): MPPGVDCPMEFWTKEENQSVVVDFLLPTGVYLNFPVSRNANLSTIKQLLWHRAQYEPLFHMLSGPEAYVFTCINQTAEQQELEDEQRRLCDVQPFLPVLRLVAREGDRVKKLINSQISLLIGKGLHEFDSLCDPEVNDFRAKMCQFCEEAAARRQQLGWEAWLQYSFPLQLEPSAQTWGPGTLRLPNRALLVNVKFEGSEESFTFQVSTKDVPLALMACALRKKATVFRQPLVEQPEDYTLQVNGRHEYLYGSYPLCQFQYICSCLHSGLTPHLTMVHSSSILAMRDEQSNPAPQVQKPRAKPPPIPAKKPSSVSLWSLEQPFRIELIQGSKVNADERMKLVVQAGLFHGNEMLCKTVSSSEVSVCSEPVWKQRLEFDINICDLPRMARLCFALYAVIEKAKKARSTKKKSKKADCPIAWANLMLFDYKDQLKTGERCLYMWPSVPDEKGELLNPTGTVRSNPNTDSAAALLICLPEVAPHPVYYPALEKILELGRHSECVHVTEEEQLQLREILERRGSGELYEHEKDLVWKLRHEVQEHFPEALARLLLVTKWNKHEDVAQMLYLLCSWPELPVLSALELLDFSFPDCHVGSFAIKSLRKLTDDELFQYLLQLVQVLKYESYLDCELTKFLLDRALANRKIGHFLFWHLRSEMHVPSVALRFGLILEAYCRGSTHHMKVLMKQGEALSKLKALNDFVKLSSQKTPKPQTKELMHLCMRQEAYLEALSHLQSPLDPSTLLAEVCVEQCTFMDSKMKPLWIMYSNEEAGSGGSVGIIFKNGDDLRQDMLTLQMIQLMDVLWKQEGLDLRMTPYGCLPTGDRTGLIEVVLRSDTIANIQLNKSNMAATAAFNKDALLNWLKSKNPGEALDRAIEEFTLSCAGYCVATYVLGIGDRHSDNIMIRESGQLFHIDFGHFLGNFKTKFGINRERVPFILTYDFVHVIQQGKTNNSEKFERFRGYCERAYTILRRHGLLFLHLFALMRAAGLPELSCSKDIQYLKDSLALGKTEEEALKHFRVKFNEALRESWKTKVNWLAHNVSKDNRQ

Cyclin-dependent kinase 5, sequence (Q00535 whole entry, looked up): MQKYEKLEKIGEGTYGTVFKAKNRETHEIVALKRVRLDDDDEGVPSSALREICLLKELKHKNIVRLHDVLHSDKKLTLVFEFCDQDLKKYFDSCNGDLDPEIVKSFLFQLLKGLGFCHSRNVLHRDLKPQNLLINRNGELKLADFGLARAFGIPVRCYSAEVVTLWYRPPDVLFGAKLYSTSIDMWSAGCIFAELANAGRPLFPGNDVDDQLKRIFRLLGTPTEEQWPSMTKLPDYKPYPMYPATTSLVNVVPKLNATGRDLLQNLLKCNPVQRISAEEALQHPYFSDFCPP
Tyrosine-protein kinase Lyn, sequence (P07948 2-512 limits assumed): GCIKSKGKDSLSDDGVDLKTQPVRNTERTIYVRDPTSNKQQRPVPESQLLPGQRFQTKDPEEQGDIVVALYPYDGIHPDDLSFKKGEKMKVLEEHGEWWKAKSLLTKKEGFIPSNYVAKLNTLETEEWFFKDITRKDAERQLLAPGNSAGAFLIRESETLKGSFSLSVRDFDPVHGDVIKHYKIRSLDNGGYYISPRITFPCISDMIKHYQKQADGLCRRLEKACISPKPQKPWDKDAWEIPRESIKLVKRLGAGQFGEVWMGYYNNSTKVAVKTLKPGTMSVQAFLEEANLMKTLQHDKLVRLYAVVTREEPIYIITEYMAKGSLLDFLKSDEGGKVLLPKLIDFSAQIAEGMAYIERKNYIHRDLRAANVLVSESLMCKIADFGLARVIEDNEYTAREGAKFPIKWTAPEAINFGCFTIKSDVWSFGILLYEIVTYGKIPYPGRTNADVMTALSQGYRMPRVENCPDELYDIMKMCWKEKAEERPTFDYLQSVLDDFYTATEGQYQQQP

## Cc1cnc(Nc2ccc(F)cc2Cl)nc1-c1c[nH]c(C(=O)N[C@H](CO)c2cccc(Cl)c2)c1
[1]
  % of inhibition: 24%

## CC[C@@H]1[C@H](F)C(=O)N[C@@H]1COc1nccc2cc(C(N)=O)c(OC)cc12 [ZIMLOVISERTIB]
[2]
  % of inhibition: 0%

## Cn1cc(-n2cnc3c(NCc4nc5cc(Cl)c(Cl)cc5[nH]4)nc(N4CCOCC4)nc32)cn1
[3]
  % of control: -1.23%

## Nc1cnc(N2CCc3cc(S(=O)(=O)Nc4c(F)cc(Cl)cc4F)cc(N4CCCC4=O)c32)nc1 [TP-020n]
[4]
  % of control: 100%

## C=CC(=O)Nc1cc(-n2c(=O)ccc3cnc4ccc(-c5ccc(NS(C)(=O)=O)cc5)cc4c32)ccc1C
[5]; at 1 µM
  % of control: 100%
[5]; at 10 µM
  % of control: 100%

## CN(C)CCOc1ccc(-c2nc(-c3ccncc3)c(-c3ccc4c(c3)CC/C4=N\O)[nH]2)cc1
[6]
  % of control: 91%

## O[C@H]1CC[C@H](Nc2ncc3nc(Nc4c(F)cc(F)cc4F)n([C@H]4CCOC4)c3n2)CC1
[7]
  % of control: 100%

## C=CC(=O)Nc1ccc(C(=O)Nc2[nH]nc3c2CN(C(=O)N[C@H](CN(C)C)c2ccccc2)C3(C)C)cc1
[8]
  % of engagement: 2.6%
[9]
  % of engagement: -6.8%

Source: ChEMBL document CHEMBL5465560, “Selectivity Literature for EUbOPEN Chemogenomic Library” (2024)
